Measured values as given in article PMC5539068, “Structural optimization and evaluation of novel 2-pyrrolidone-fused (2-oxoindolin-3-ylidene)methylpyrrole derivatives as potential VEGFR-2/PDGFRβ inhibitors” (Chemistry Central Journal, 2017).

Assays:
HUVEC cells = assay: In-vitro VEGF-induced Matrigel tube formation assay; assay type: cell-based, human; details: for IC50: Homo sapiens, HUVEC, VEGF 10 ng/ml, Matrigel, 6 h, read-out: IC50 Area (in vitro tube formation)
Protocol: The in vitro tube formation assay was assessed using ibidi μ-Slides (15-well, ibidi GmbH, Martinsried, Germany) in accordance with manufacturer’s protocol. Briefly, growth factor reduced Matrigel (10 μl) (Sigma, St. Louis MO) was added to the inner well of ibidi μ-Slides, and incubated at 37 °C for 1 h. […] 10,000 HUVEC cells in 50 μl of above growth medium was added to Matrigel (Sigma, St. Louis MO, USA) coated ibidi μ-Slides. After 6 h of incubation at 37 °C, the supernatant was discarded, and 50 μl of serum-free medium with diluted calcein AM (6.25 μg/ml) was added to above ibidi μ-Slides. After incubation in the dark at room temperature for 30 min, the μ-Slides were washed with PBS (50 μl) and fluorescence pictures were taken at 485 nm with a Leica DM1000 LED microscope (Leica Microsystems, Wetzlar, Hessen, Germany).

[1] = Preliminary pharmacokinetic studies; details: no data shown
786-O cells = assay: Cell proliferation assay (MTT), 786-O; details: Homo sapiens, 786-0, 72 h, read-out: IC50 786-O
Protocol: (§1) Serial dilutions of indicated compounds were added and incubated for additional 72 h. At the end of the incubation, cell viability was determined by the 3-(4,5-dimethylthiazol-2-yl)-2,5-diphenyl tetrazolium bromide (MTT) assay. The MTT formazan crystals formed were dissolved in DMSO, and the absorbance at 570 nm was recorded using a microplate spectrophotometer (Thermo Fisher Scientific, Waltham, MA, USA) [46].

HCT116 cells [2] = assay: Cell proliferation assay (MTT), HCT116; details: Homo sapiens, HCT-116, 72 h, read-out: IC50 HCT116
Protocol: as §1

NCI-H460 cells = assay: Cell proliferation assay (MTT), NCI-H460; details: Homo sapiens, NCI-H460, 72 h, read-out: IC50 NCI-H460
Protocol: as §1

PDGFRβ = PDGFRβ (Homo sapiens, UniProt P09619); assay: In-vitro kinase assay (HotSpot, 33P), PDGFRβ
VEGFR-2 = VEGFR-2 (Homo sapiens, UniProt P35968); assay: In-vitro kinase assay (HotSpot, 33P), VEGFR-2; details: for inhibition at 0.08 µM: read-out: % inhibition of VEGFR-2 at 80 nM
Protocol: Next, the VEGFR-2 phosphorylation inhibitory activities of the newly synthesized compounds were evaluated.
(§2) Briefly, specific kinase and substrate and required cofactors were prepared in reaction buffer. Test compounds were added to the reaction and after 20 min a mixture of ATP (Sigma, St. Louis MO, USA) and ^33P ATP (Perkin Elmer, Waltham MA, USA) was added to make a final concentration of 10.0 μM. Reactions were stood at room temperature for 120 min, and then the reactions were spotted onto a P81 ion exchange filter paper (Whatman Inc., Piscataway, NJ, USA). Unbound phosphate was removed by extensive washing of filters in 0.1% phosphoric acid. Kinase activity data was reported as the percent remaining kinase activity in test compounds compared to the solvent control dimethyl sulfoxide (DMSO).

HCT116 cells [3] = assay: Cell cycle analysis by image cytometry (DAPI); details: 3.0 μM, 24 h; preliminary
Protocol: Cell cycle profiles of HCT116 cells were determined with an NC-3000 image cytometer (ChemoMetec, Allerod, Denmark) in accordance with manufacturer’s protocol. Briefly, cells were seeded at 200,000 cells/well on a 6-well plate for 24 h. […] After incubation for 24 h, 100,000 cells were harvested and centrifuged at 400 g at room temperature for 5 min, washed once with PBS (50 μM), and resuspended in lysis buffer (50 μl) (ChemoMetec, Allerod, Denmark) containing 10 μg/ml of 2-(4-amidinophenyl)-1H-indole-6-carboxamidine (DAPI, ChemoMetec, Allerod, Denmark). […] The cellular fluorescence was measured with an NC-3000 image cytometer using NC-SlideA8 (ChemoMetec, Allerod, Denmark). The NC-3000 software (ChemoMetec, Allerod, Denmark) was used for image acquisition, image analysis and quantification, and data visualization.

Aurora A = target: T1, Aurora A (Homo sapiens, UniProt O14965); assay: In-vitro kinase assay (HotSpot, 33P), Aurora A; details: ATP 10.0 μM; for inhibition at 1 µM: read-out: % inhibition of Aurora A at 1.0 μM, 1.0 μM compound
T1 sequence (O14965 1-403): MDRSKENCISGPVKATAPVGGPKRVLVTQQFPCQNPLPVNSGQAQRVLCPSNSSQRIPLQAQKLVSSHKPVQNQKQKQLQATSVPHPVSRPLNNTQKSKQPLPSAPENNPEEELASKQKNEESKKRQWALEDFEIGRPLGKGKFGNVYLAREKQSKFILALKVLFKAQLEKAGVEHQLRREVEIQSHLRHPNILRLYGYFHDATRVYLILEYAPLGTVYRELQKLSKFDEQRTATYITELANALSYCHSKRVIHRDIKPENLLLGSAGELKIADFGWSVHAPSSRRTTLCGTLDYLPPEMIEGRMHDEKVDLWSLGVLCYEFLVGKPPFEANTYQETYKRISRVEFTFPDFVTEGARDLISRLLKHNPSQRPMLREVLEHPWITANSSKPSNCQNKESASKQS
Protocol: as §2

Detroit 551 cells = assay: Cell proliferation assay (MTT), normal fibroblast Detroit 551; details: Homo sapiens, Detroit 551, 72 h, read-out: IC50 Detroit 551
Protocol: as §1

HCT116 cells [4] = details: VEGFR-1/2 inhibitor; cited from earlier work
[5] = system: patients with advanced colorectal cancer; set-up: method as in earlier work; details: Phase IIb, cited from earlier work

VEGFR-2, sequence (P35968 20-1356): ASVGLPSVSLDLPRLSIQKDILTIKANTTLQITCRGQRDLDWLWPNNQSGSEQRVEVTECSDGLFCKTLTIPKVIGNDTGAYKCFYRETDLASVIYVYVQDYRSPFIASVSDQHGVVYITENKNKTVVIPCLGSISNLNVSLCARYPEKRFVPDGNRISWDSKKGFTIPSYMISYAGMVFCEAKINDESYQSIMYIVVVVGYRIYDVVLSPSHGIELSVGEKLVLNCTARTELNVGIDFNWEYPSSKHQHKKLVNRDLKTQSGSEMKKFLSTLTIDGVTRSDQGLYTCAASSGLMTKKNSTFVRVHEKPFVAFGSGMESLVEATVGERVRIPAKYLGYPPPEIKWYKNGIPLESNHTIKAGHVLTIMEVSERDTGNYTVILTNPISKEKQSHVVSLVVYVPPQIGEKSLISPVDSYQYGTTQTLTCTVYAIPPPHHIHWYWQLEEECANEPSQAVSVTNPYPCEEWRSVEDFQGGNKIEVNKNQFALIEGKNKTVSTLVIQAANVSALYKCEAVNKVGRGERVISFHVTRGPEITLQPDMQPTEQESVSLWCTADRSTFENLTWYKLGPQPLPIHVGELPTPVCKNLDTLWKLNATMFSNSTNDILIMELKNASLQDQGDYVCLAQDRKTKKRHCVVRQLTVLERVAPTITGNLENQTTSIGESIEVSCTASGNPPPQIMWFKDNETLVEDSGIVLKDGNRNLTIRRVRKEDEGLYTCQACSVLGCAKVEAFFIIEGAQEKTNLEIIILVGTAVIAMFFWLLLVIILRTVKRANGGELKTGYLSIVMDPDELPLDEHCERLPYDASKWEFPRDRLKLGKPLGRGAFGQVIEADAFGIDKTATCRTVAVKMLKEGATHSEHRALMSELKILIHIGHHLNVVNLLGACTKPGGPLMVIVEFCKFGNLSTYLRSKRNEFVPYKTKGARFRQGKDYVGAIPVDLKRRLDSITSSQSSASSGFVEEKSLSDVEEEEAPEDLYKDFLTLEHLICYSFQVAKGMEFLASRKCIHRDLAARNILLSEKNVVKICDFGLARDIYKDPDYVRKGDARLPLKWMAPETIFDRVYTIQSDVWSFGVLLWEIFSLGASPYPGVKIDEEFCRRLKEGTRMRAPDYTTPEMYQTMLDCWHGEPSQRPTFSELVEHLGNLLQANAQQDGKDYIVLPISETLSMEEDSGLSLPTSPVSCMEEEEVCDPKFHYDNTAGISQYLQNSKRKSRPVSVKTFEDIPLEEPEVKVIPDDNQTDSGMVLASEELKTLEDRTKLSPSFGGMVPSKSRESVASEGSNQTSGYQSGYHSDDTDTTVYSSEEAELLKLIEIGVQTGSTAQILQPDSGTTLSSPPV
PDGFRβ, sequence (P09619 33-1106): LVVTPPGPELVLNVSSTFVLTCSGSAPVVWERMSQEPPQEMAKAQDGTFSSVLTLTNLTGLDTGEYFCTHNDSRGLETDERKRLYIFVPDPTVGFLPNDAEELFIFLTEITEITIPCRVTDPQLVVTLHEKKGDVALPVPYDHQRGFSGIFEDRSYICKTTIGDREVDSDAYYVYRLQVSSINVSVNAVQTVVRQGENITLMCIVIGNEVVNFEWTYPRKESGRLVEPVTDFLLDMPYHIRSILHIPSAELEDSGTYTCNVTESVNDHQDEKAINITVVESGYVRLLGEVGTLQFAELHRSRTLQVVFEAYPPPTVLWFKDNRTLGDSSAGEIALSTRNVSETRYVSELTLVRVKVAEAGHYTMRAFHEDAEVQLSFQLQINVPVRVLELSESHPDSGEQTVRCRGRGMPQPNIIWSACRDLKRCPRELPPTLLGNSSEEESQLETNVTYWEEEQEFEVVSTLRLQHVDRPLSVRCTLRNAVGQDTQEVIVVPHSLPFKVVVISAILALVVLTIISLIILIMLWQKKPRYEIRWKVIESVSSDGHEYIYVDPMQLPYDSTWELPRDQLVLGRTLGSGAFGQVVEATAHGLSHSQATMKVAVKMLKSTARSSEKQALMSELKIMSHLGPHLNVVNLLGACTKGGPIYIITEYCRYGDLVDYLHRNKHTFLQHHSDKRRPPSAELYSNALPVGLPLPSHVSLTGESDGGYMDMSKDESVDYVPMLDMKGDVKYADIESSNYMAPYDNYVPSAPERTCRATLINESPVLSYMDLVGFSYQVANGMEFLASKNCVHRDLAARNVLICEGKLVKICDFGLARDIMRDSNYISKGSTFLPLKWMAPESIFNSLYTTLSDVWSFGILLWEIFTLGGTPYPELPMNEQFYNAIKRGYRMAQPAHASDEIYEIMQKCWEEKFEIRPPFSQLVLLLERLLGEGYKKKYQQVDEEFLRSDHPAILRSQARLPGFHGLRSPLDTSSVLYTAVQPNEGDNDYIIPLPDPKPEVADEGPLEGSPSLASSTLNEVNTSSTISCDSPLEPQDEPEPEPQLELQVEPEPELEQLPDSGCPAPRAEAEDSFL

preliminary results in pharmacokinetic studies [1] | melting point | IC50 (786-O cells) | IC50 (HCT116 cells [2]) | IC50 (NCI-H460 cells) | IC50 (PDGFRβ) | IC50 (VEGFR-2) | inhibition at 0.08 µM (VEGFR-2) | % inhibition of Aurora A at 1.0 μM (Aurora A; 1.0 μM compound) | inhibition at 1 µM (Aurora A) | Structure (SMILES) | IC50 (HUVEC cells) | cell cycle profile effect (HCT116 cells [3]) | IC50 (Detroit 551 cells) | proliferation of HCT116 cells (HCT116 cells [4]) | progression free survival (PFS) ([5]; compared to placebo) | toxicity [5] | potency in inhibiting in vitro tube formation relative to sunitinib in terms of IC50 (HUVEC cells; versus sunitinib)
satisfactory | 257 to 260 °C | > 10 µM | 2340 ± 200 nM | > 10 µM | 12.1 nM | 14.6 nM | 57% | 96.4% | 93.6% | CCN(CC)CCN1Cc2[nH]c(/C=C3\C(=O)Nc4ccc(S)cc43)c(C)c2C1=O [Compound 15, (Z)-3-((5-(2-(diethylamino)ethyl)-3-methyl-4-oxo-1,4,5,6-tetrahydropyrrolo[3,4-b]pyrrol-2-yl)methylene)-5-mercaptoindolin-2-one] | 530 ± 110 nM | increase in tetraploid cells | > 10 µM |  |  |  | 
 |  |  |  |  |  |  |  |  |  | O=C(Nc1cccc(C(F)(F)F)c1)c1ccccc1NCc1ccncc1 [AAL993] |  |  |  | significantly decreases proliferation |  |  | 
 |  |  |  |  |  |  |  |  |  | CCN(CC)CCN1CCc2[nH]c(/C=C3\C(=O)Nc4ccc(F)cc43)c(C)c2C1=O [famitinib] |  |  |  |  | significantly improved progression free survival (PFS) | manageable | 
satisfactory | 240 to 242 °C | > 10 µM | 2830 ± 400 nM | > 10 µM | 28.5 nM | 25.9 nM | 58% |  | 93.6% | CCN(CC)CCN1Cc2[nH]c(/C=C3\C(=O)Nc4ccc(O)cc43)c(C)c2C1=O [Compound 14, (Z)-3-((5-(2-(diethylamino)ethyl)-3-methyl-4-oxo-1,4,5,6-tetrahydropyrrolo[3,4-b]pyrrol-2-yl)methylene)-5-hydroxyindolin-2-one] | 620 ± 70 nM | G0/G1 cell cycle arrest | > 10 µM |  |  |  | roughly 2.5 fold
